The term IC50 denotes the concentration that gives 50% inhibition.

For one experiment, the target named is ROCK1 (Homo sapiens (Human), UniProt Q13464). As to the kind of experiment: ROCK assay (LABCHIP peptide phosphorylation), ROCK1. The class given is biochemical. To be noted: 5 μM ATP, 1.5 μM peptide substrate; read-out: ROCK1 IC50.
The next experiment addresses ROCK2 (Homo sapiens (Human), UniProt O75116). Nature of the experiment: ROCK assay (LABCHIP peptide phosphorylation), ROCK2. Format: biochemical. To be noted: 5 μM ATP, 1.5 μM peptide substrate.

Sequence of ROCK2 (O75116 whole entry, species assumed): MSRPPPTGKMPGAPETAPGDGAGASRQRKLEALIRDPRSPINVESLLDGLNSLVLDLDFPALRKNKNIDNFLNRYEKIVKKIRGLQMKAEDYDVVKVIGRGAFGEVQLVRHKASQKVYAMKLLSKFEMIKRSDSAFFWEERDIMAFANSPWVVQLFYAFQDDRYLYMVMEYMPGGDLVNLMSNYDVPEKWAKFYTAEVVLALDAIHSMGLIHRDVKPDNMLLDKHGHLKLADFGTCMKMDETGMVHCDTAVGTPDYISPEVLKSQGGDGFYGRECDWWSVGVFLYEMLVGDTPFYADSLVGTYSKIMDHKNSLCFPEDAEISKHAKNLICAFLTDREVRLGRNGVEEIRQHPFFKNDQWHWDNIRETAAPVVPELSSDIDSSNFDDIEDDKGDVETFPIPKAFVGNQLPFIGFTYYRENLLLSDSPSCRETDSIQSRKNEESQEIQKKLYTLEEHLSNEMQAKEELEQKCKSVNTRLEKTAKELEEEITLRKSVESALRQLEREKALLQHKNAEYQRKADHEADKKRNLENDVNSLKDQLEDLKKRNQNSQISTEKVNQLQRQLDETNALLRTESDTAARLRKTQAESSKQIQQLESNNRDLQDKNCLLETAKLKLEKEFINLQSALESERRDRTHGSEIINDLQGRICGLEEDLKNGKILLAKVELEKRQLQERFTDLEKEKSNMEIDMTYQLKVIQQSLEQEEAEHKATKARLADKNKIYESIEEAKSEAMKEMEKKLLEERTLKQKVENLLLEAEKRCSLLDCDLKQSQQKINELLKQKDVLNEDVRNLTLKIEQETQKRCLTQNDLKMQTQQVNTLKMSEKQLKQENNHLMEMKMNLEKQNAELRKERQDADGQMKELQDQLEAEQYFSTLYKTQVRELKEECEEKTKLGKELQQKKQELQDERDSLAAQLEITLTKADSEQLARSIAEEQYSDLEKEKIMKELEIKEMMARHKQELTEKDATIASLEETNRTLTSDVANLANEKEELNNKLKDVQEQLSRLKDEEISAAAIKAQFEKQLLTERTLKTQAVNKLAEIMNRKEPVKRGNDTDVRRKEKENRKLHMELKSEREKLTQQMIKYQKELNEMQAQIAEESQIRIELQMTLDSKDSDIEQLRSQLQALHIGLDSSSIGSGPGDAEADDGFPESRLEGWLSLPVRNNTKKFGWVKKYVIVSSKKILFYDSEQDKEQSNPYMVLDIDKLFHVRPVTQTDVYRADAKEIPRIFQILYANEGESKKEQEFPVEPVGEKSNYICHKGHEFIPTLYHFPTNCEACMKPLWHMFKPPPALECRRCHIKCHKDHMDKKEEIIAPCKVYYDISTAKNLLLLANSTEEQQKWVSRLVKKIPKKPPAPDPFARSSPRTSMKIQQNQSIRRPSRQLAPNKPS
Sequence of ROCK1 (Q13464 whole entry, species assumed): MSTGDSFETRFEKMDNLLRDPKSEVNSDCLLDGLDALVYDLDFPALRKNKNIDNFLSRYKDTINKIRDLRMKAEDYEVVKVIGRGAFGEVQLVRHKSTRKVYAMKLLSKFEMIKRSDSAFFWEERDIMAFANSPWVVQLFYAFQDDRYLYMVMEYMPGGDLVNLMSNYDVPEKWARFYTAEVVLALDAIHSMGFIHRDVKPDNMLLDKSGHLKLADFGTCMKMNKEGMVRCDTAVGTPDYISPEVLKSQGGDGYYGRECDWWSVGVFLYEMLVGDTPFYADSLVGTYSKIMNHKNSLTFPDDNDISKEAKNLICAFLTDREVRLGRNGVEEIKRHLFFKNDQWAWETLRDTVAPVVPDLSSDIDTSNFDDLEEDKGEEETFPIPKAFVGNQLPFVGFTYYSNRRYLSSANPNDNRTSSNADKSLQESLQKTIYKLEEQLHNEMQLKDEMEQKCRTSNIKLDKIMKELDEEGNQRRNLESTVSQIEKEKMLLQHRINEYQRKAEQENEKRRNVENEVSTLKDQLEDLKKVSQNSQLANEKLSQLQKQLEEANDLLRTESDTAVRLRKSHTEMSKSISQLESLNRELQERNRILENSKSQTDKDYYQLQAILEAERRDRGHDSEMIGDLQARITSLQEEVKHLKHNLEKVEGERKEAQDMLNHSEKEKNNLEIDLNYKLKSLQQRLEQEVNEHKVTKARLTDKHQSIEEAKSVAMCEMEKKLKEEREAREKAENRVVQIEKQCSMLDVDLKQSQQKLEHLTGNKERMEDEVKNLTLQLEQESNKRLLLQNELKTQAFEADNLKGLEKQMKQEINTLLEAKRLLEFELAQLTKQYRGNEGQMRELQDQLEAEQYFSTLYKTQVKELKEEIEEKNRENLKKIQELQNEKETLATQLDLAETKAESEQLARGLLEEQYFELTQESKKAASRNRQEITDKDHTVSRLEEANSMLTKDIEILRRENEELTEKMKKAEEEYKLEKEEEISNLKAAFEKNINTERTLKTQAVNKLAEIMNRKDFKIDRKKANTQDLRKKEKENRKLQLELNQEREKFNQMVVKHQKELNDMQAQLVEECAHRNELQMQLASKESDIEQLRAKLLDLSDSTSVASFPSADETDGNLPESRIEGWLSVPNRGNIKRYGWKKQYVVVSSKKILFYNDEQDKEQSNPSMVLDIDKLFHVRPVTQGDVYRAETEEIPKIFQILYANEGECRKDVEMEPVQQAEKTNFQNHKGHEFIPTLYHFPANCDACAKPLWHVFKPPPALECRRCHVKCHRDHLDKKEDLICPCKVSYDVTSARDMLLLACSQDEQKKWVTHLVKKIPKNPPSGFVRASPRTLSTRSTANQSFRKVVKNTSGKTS

Consider `CC(C)(O)Cn1nc(C(=O)Nc2ccc(-c3n[nH]c(=O)c4ccccc34)cc2)c2ccccc21` [Example 137, 1-(2-hydroxy-2-methylpropyl)-N-[4-(4-oxo-3,4-dihydrophthalazin-1-yl)phenyl]-1H-indazole-3-carboxamide], for which the IC50 at ROCK1 and at ROCK2 was 0.1 to 100 nM throughout.
Consider `COc1ccc(N2CCN(C(=O)Cc3ccc(-c4n[nH]c(=O)c5ccccc45)cc3)CC2)cc1` [Example 16, 4-(4-{2-[4-(4-methoxyphenyl)piperazin-1-yl]-2-oxoethyl}phenyl)-1,2-dihydrophthalazin-1-one], for which the IC50 at ROCK1 and against ROCK2 was 1000 to 50000 nM each time.
For the compound `O=C(Nc1ccc(-c2n[nH]c(=O)c3ccccc23)cc1)c1cnn(-c2ccccc2)c1` [Example 191, N-[4-(4-oxo-3,4-dihydrophthalazin-1-yl)phenyl]-1-phenyl-1H-pyrazole-4-carboxamide], the IC50 on ROCK1 and at ROCK2 was 0.1 to 100 nM each time.
`O=C(c1ccc2c(c1)CCN2C(=O)Cc1ccc(-c2n[nH]c(=O)c3ccccc23)cc1)N1CCC(O)CC1` [Example 294, 4-(4-{2-[5-(4-hydroxypiperidine-1-carbonyl)-2,3-dihydro-1H-indol-1-yl]-2-oxoethyl}phenyl)-1,2-dihydrophthalazin-1-one]: the IC50 on ROCK1 was in the range of 101 to 1000 nM; against ROCK2, 0.1 to 100 nM.
Taken in the same sequence, the figures for `CCOc1ccc2c(c1)N(C(=O)Cc1ccc(-c3n[nH]c(=O)c4ccccc34)cc1)CC2` [Example 33, 4-{4-[2-(6-ethoxy-2,3-dihydro-1H-indol-1-yl)-2-oxoethyl]phenyl}-1,2-dihydrophthalazin-1-one] were 0.1 to 100 nM and 0.1 to 100 nM.
Taken in the same sequence, the figures for `NC(=O)COc1ccc2c(c1)N(C(=O)Cc1ccc(-c3n[nH]c(=O)c4ccccc34)cc1)CC2` [Example 298, 2-((1-(2-(4-(4-Oxo-3,4-dihydrophthalazin-1-yl)phenyl)acetyl)indolin-6-yl)oxy)acetamide] were 0.1 to 100 nM and 0.1 to 100 nM.
Turning to `O=C(Cc1ccc(-c2n[nH]c(=O)c3ccccc23)cc1)Nc1nncs1` [Example 29, 2-[4-(4-oxo-3,4-dihydrophthalazin-1-yl)phenyl]-N-(1,3,4-thiadiazol-2-yl)acetamide], the IC50 on ROCK1 lay in the range of 1000 to 50000 nM; against ROCK2, 0.1 to 100 nM.
Taken in the same sequence, the figures for `CN1CCc2nc(C(=O)Nc3ccc(-c4n[nH]c(=O)c5ccccc45)cc3)sc2C1` [Example 51, 5-methyl-N-[4-(4-oxo-3,4-dihydrophthalazin-1-yl)phenyl]-4H,5H,6H, 7H-[1,3]thiazolo[5,4-c] pyridine-2-carboxamide] were 1000 to 50000 nM and 0.1 to 100 nM.
The matching figures for `Cc1cn2cc(C(=O)Nc3ccc(-c4n[nH]c(=O)c5ccccc45)cc3)nc2cn1` [Example 121, 6-methyl-N-[4-(4-oxo-3,4-dihydrophthalazin-1-yl)phenyl]imidazo[1,2-a]pyrazine-2-carboxamide]: 101 to 1000 nM and 0.1 to 100 nM.
The matching figures for `O=C(Cc1ccc(-c2n[nH]c(=O)c3ccccc23)cc1)N1CCc2ccc(O[C@@H]3CCOC3)cc21` [Example 274, 4-[4-(2-oxo-2-{6-[(3R)-oxolan-3-yloxy]-2,3-dihydro-1H-indol-1-yl}ethyl)phenyl]-1,2-dihydrophthalazin-1-one]: 0.1 to 100 nM and 0.1 to 100 nM.
As to `COCC(O)COc1ccn2ncc(C(=O)Nc3ccc(-c4n[nH]c(=O)c5ccccc45)cc3)c2c1` (stereo not drawn) [Example 194, 5-(2-hydroxy-3-methoxypropoxy)-N-[4-(4-oxo-3,4-dihydrophthalazin-1-yl)phenyl]pyrazolo[1,5-a]pyridine-3-carboxamide], the figures for the IC50 on ROCK1 and on ROCK2 were 101 to 1000 nM and 0.1 to 100 nM, respectively.
Taken in the same sequence, the figures for `CN1CC(Cn2nc(C(=O)Nc3ccc(-c4n[nH]c(=O)c5ccccc45)cc3)c3ccccc32)C1` [Example 340, 1-((1-Methylazetidin-3-yl)methyl)-N-(4-(4-oxo-3,4-dihydrophthalazin-1-yl)phenyl)-1H-indazole-3-carboxamide] were 0.1 to 100 nM and 0.1 to 100 nM.
For the compound `CC(C)(C)n1cc(C(=O)Nc2ccc(-c3n[nH]c(=O)c4ccccc34)cc2)cn1` [Example 381, 1-(tert-Butyl)-N-(4-(4-oxo-3,4-dihydrophthalazin-1-yl)phenyl)-1H-pyrazole-4-carboxamide], the IC50 on ROCK1 and on ROCK2 was 0.1 to 100 nM each time.
As for `CC(C)=Cn1nc(C(=O)Nc2ccc(-c3n[nH]c(=O)c4ccccc34)cc2)c2ccc(F)cc21` [Example 179, 6-fluoro-1-(2-methylprop-1-en-1-yl)-N-[4-(4-oxo-3,4-dihydrophthalazin-1-yl)phenyl]-1H-indazole-3-carboxamide], the IC50 on ROCK1 and against ROCK2 was 0.1 to 100 nM each time.
With `O=C(Nc1ccc(-c2n[nH]c(=O)c3ccccc23)cc1)c1nn(CC2CNC2)c2ccccc12` [Example 338, 1-(Azetidin-3-ylmethyl)-N-(4-(4-oxo-3,4-dihydrophthalazin-1-yl)phenyl)-1H-indazole-3-carboxamide], the IC50 lay within 0.1 to 100 nM at ROCK1 and 101 to 1000 nM against ROCK2.
Taken in the same sequence, the figures for `CCn1ccc(C(=O)Nc2ccc(-c3n[nH]c(=O)c4ccccc34)cc2)n1` [Example 204, 1-ethyl-N-[4-(4-oxo-3,4-dihydrophthalazin-1-yl)phenyl]-1H-pyrazole-3-carboxamide] were 101 to 1000 nM and 0.1 to 100 nM.
Taken in the same sequence, the figures for `CN(C)c1cccc(C(=O)Nc2ccc(-c3n[nH]c(=O)c4ccccc34)cc2)c1` [Example 66, 3-(dimethylamino)-N-[4-(4-oxo-3,4-dihydrophthalazin-1-yl)phenyl]benzamide] were 0.1 to 100 nM and 0.1 to 100 nM.
With `Cc1cc(NC(=O)c2onc3ccccc23)ccc1-c1n[nH]c(=O)c2ccccc12` [Example 306, N-[3-methyl-4-(4-oxo-3,4-dihydrophthalazin-1-yl)phenyl]-2,1-benzoxazole-3-carboxamide], the IC50 at ROCK1 lay in the range of 101 to 1000 nM; at ROCK2, 0.1 to 100 nM.
The matching figures for `Cc1cc(NC(=O)c2nn(CC(C)(C)O)c3ccccc23)ccc1-c1n[nH]c(=O)c2ccccc12` [Example 301, 1-(2-hydroxy-2-methylpropyl)-N-[3-methyl-4-(4-oxo-3,4-dihydrophthalazin-1-yl)phenyl]-1H-indazole-3-carboxamide]: 0.1 to 100 nM and 0.1 to 100 nM.
The matching figures for `CC(C)(O)Cn1nc(C(=O)Nc2ccc(-c3n[nH]c(=O)c4ccccc34)c(CO)c2)c2ccccc21` [Example 360, 1-(2-Hydroxy-2-methylpropyl)-N-(3-(hydroxymethyl)-4-(4-oxo-3,4-dihydrophthalazin-1-yl)phenyl)-1H-indazole-3-carboxamide]: 1000 to 50000 nM and 0.1 to 100 nM.
Take `CC(C)c1c(C(=O)Nc2ccc(-c3n[nH]c(=O)c4ccccc34)cc2)nnn1-c1ccccc1` [Example 221, N-[4-(4-oxo-3,4-dihydrophthalazin-1-yl)phenyl]-1-phenyl-5-(propan-2-yl)-1H-1,2,3-triazole-4-carboxamide]: the IC50 on ROCK1 and at ROCK2 was 101 to 1000 nM each time.
Regarding `O=C(Nc1ccc(-c2n[nH]c(=O)c3ccccc23)cc1)c1csc(-c2ccc(C(F)(F)F)cc2)n1` [Example 48, N-[4-(4-oxo-3,4-dihydrophthalazin-1-yl)phenyl]-2-[4-(trifluoromethyl)phenyl]-1,3-thiazole-4-carboxamide], the values for the IC50 at ROCK1 and at ROCK2 were 101 to 1000 nM and 0.1 to 100 nM, respectively.
Taken in the same sequence, the figures for `Cn1c(C(=O)Nc2ccc(-c3n[nH]c(=O)c4ccccc34)cc2)cc2cc(Cl)ccc21` [Example 96, 5-chloro-1-methyl-N-[4-(4-oxo-3,4-dihydrophthalazin-1-yl)phenyl]-1H-indole-2-carboxamide] were 101 to 1000 nM and 0.1 to 100 nM.
Taken in the same sequence, the figures for `Cn1nc(C(=O)Nc2ccc(-c3n[nH]c(=O)c4ccccc34)c(CO)c2)c2ccccc21` [Example 363, N-(3-(Hydroxymethyl)-4-(4-oxo-3,4-dihydrophthalazin-1-yl)phenyl)-1-methyl-1H-indazole-3-carboxamide] were 1000 to 50000 nM and 0.1 to 100 nM.
The matching figures for `CC(C)(O)COc1ccc2c(c1)N(C(=O)Cc1ccc(-c3n[nH]c(=O)c4ccccc34)cc1)CC2` [Example 265, 4-(4-(2-(6-(2-Hydroxy-2-methylpropoxy)indolin-1-yl)-2-oxoethyl)phenyl)phthalazin-1(2H)-one]: 0.1 to 100 nM and 0.1 to 100 nM.
For `O=C(Nc1ccc(-c2n[nH]c(=O)c3ccccc23)cc1)c1ncc(-c2ccncc2)s1` [Example 47, N-[4-(4-oxo-3,4-dihydrophthalazin-1-yl)phenyl]-5-(pyridin-4-yl)-1,3-thiazole-2-carboxamide], the values for the IC50 at ROCK1 and at ROCK2 were 101 to 1000 nM and 0.1 to 100 nM, respectively.
The matching figures for `O=C(Nc1ccc(-c2n[nH]c(=O)c3ccccc23)cc1)N1CCc2ccccc21` [Example 76, N-(4-(4-Oxo-3,4-dihydrophthalazin-1-yl)phenyl)indoline-1-carboxamide]: 0.1 to 100 nM and 0.1 to 100 nM.
Take `Cn1cc(C(=O)Nc2ccc(-c3n[nH]c(=O)c4ccccc34)cc2)cn1` [Example 212, 1-methyl-N-[4-(4-oxo-3,4-dihydrophthalazin-1-yl)phenyl]-1H-pyrazole-4-carboxamide]: the IC50 lay in the range of 101 to 1000 nM on ROCK1 and 0.1 to 100 nM at ROCK2.
Taken in the same sequence, the figures for `O=C(Nc1ccc(-c2n[nH]c(=O)c3ccccc23)cc1)c1cnn(CCCN2CCCC2)c1` [Example 399, N-(4-(4-Oxo-3,4-dihydrophthalazin-1-yl)phenyl)-1-(3-(pyrrolidin-1-yl)propyl)-1H-pyrazole-4-carboxamide] were 101 to 1000 nM and 101 to 1000 nM.
Taken in the same sequence, the figures for `O=c1[nH]nc(-c2ccc(Nc3nc4ccccc4o3)cc2)c2ccccc12` [Example 75, 4-(4-(Benzo[d]oxazol-2-ylamino)phenyl)phthalazin-1(2H)-one] were 0.1 to 100 nM and 0.1 to 100 nM.

The values are drawn from patent US9926282B2, “Phthalazinones and isoquinolinones as rock inhibitors” (BRISTOL-MYERS SQUIBB COMPANY, priority 2013, dated 2018).
